Measured values taken from ChEMBL document CHEMBL1201862, “PubChem BioAssay data set” (2004).
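Each compound was tested at five concentrations against cells in 96-well plates for 48 hours. GI50: concentration for 50% inhibition of growth.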 Active and inactive are the calls of the source. Cut-off read from the data, not from the text of the source: active = GI50 up to about 1.1 µM and inactive = higher.

Tests used:
Assay in all cases: DTP human tumour cell line panel, 48 h
[1] = system: OVCAR-5
[2] = system: HL-60
[3] = system: BT-549
[4] = system: NCI-H460
[5] = system: HCT-116
[6] = system: CAKI-1
[7] = system: A549
[8] = system: SF-539
[9] = system: SK-MEL-5
[10] = system: UACC-257
[11] = system: NCI-H226
[12] = system: LOX IMVI
[13] = system: SNB-19
[14] = system: SF-268
[15] = system: NCI/ADR-RES
[16] = system: PC-3
[17] = system: T47D
[18] = system: MDA-N
[19] = system: SNB-75

Measured: GI50

N/C(=N\OC(=O)NC(Cl)=C(Cl)Cl)c1cc(C(F)(F)F)cc(C(F)(F)F)c1
inactive: [1] 21.1 µM | [2] 12.8 µM | [3] 21.8 µM | [4] 18.8 µM | [5] 18.6 µM | [6] 16.7 µM | [7] 15.3 µM | [8] 16 µM | [9] 26.8 µM | [10] 16.1 µM | [11] 22.1 µM | [12] 16.3 µM | [13] 18.7 µM | [14] 18.7 µM | [15] 19.5 µM | [16] 17.5 µM | [17] 6.21 µM | [18] 21.5 µM

Cc1c2cccc-2c(N(C)C)cc2c1[nH]c1ccccc12
inactive: [1] 3.23 µM | [2] 2.35 µM | [3] 2.6 µM | [4] 9.16 µM | [5] 3.33 µM | [6] 17.5 µM | [7] 3.85 µM | [8] 2.11 µM | [9] 5.64 µM | [10] 13 µM | [11] 5.81 µM | [12] 3.94 µM | [13] 9.27 µM | [14] 5.13 µM | [15] 3.22 µM | [16] 1.42 µM | [17] 1.86 µM | [18] 6.56 µM

CN(C)c1ccc(/C=c2/c3ccccc3n3nc4ccccc4c23)cc1
inactive: [1] > 100 µM | [2] 21.2 µM | [19] 2.49 µM | [3] 13.8 µM | [4] 30.1 µM | [5] 16.8 µM | [6] 28.7 µM | [7] 16.3 µM | [8] 24.4 µM | [9] 8.73 µM | [10] 56 µM | [12] 18.7 µM | [13] 76.9 µM | [14] 36.3 µM | [15] 11.1 µM | [16] 8.04 µM | [17] 6.47 µM | [18] 3.13 µM

O=c1[nH]nc(Cc2c[nH]c3ccccc23)o1
inactive: [1] > 100 µM | [2] > 100 µM | [3] > 100 µM | [5] > 100 µM | [6] > 100 µM | [7] > 100 µM | [8] > 100 µM | [9] > 100 µM | [10] > 100 µM | [11] > 100 µM | [12] > 100 µM | [13] > 100 µM | [14] > 100 µM | [15] > 100 µM | [16] > 100 µM | [17] > 100 µM | [18] > 100 µM

CN(C)Cc1cc(/C=C/C(=O)c2ccc(Br)cc2)cc(CN(C)C)c1O
inactive: [1] 35.2 µM | [2] 6.84 µM | [19] 12.5 µM | [3] 15.1 µM | [4] 19.3 µM | [5] 14.8 µM | [6] 8.47 µM | [7] 29.2 µM | [8] 13.1 µM | [9] 19.6 µM | [10] 17.2 µM | [13] 20.3 µM | [14] 14.8 µM | [15] 36.6 µM | [16] 26.6 µM | [17] 18.5 µM | [18] 17.1 µM

CC(Cc1cccc2c1Nc1ccccc1S2)N(C)CCO (stereo not given)
inactive: [1] > 100 µM | [2] > 100 µM | [3] > 100 µM | [4] > 100 µM | [5] > 100 µM | [6] > 100 µM | [7] > 100 µM | [8] > 100 µM | [9] > 100 µM | [10] > 100 µM | [11] > 100 µM | [12] > 100 µM | [13] > 100 µM | [14] > 100 µM | [15] > 100 µM | [16] > 100 µM | [17] > 100 µM | [18] > 100 µM

C=CC(=O)Nc1ccc(NC(=O)C=C)c2c1C(=O)c1ccccc1C2=O
inactive: [1] > 100 µM | [2] 3.86 µM | [3] 29.9 µM | [4] > 100 µM | [5] 62.8 µM | [7] > 100 µM | [8] 24.8 µM | [9] 60.1 µM | [10] > 100 µM | [12] 5.07 µM | [13] > 100 µM | [15] > 100 µM | [16] 40.8 µM | [17] > 100 µM | [18] 36.1 µM

O=C(NNC(=O)c1ccccc1Cl)c1ccccc1O
inactive: [1] > 100 µM | [19] 20.5 µM | [3] > 100 µM | [4] 23.6 µM | [5] 35.8 µM | [6] 41.3 µM | [7] 56.2 µM | [8] > 100 µM | [9] > 100 µM | [10] > 100 µM | [11] 3.42 µM | [12] 38.1 µM | [13] > 100 µM | [14] 10.6 µM | [15] 20.3 µM | [16] 40.4 µM | [17] > 100 µM | [18] > 100 µM

O=C1NC(=S)NC(=O)C1C(c1ccc(Cl)cc1)C1C(=O)NC(=S)NC1=O.c1ccncc1
inactive: [1] > 100 µM | [2] > 100 µM | [3] > 100 µM | [4] > 100 µM | [5] > 100 µM | [6] > 100 µM | [7] > 100 µM | [9] > 100 µM | [10] > 100 µM | [11] > 100 µM | [12] > 100 µM | [13] > 100 µM | [15] > 100 µM | [16] > 100 µM | [17] > 100 µM | [18] > 100 µM

N#CC1(c2ccccc2)CCN(C2(c3ccccc3)CCCCC2)CC1
inactive: [1] > 100 µM | [2] > 100 µM | [19] > 100 µM | [3] > 100 µM | [5] > 100 µM | [6] > 100 µM | [7] > 100 µM | [9] > 100 µM | [10] > 100 µM | [11] > 100 µM | [12] > 100 µM | [13] > 100 µM | [14] > 100 µM | [15] > 100 µM | [16] > 100 µM | [17] > 100 µM | [18] > 100 µM

CC(C)(C)OC(=O)NCCCCC(NC(=O)c1ccccc1)C(N)=O (stereo not given)
inactive: [1] > 100 µM | [19] > 100 µM | [3] > 100 µM | [4] > 100 µM | [5] > 100 µM | [6] > 100 µM | [7] > 100 µM | [8] > 100 µM | [9] > 100 µM | [10] > 100 µM | [11] > 10 µM | [12] > 100 µM | [13] > 100 µM | [14] > 100 µM | [15] > 100 µM | [16] > 100 µM | [17] > 100 µM | [18] > 100 µM
